Where two headings read alike, the source gives them in different places.
Experiments:
[1] = biological target: RSK3(Kin.Dom.2-C-terminal) (Homo sapiens, UniProt Q15349); settings: 0.1 µM; binder
CDK4-cyclinD1 = CDK4-cyclinD1 (Homo sapiens, UniProt P11802); settings: 0.1 µM; binder
[2] = biological target: JAK3(JH1domain-catalytic) (Homo sapiens, UniProt P52333); settings: 0.1 µM; binder
GCN2(Kin.Dom.2,S808G) = GCN2(Kin.Dom.2,S808G) (Homo sapiens, UniProt Q9P2K8, S808G); settings: 0.1 µM; binder
[3] = biological target: RSK1(Kin.Dom.2-C-terminal) (Homo sapiens, UniProt Q15418); settings: 0.1 µM; binder
[4] = biological target: RPS6KA5(Kin.Dom.2-C-terminal) (Homo sapiens, UniProt O75582); settings: 0.1 µM; binder
[5] = biological target: JAK1(JH2domain-pseudokinase) (Homo sapiens, UniProt P23458); settings: 0.1 µM; binder
[6] = biological target: RPS6KA4(Kin.Dom.2-C-terminal) (Homo sapiens, UniProt O75676); settings: 0.1 µM; binder
PKNB (M. tuberculosis) = PKNB (M. tuberculosis) (Mycobacterium tuberculosis, UniProt P9WI81); settings: 0.1 µM; binder
[7] = biological target: RPS6KA5(Kin.Dom.1-N-terminal) (Homo sapiens, UniProt O75582); settings: 0.1 µM; binder
PFPK5(P. falciparum) [8] = biological target: T1, PFPK5(P. falciparum) (Plasmodium falciparum, UniProt P61075); settings: 0.1 µM; binder
[9] = biological target: RSK2(Kin.Dom.1-N-terminal) (Homo sapiens, UniProt P51812); settings: 0.1 µM; binder
PFCDPK1 (P. falciparum) = PFCDPK1 (P. falciparum) (Plasmodium falciparum, UniProt P62344); settings: 0.1 µM; binder
PFPK5(P. falciparum) [10] = biological target: T1, PFPK5(P. falciparum); settings: 1 µM; binder
CSNK2A2 = CSNK2A2 (Homo sapiens, UniProt P19784); settings: 1 µM; binder
EPHA5 = EPHA5 (Homo sapiens, UniProt P54756); settings: 1 µM; binder
ERK2 = ERK2 (Homo sapiens, UniProt P28482); settings: 1 µM; binder
HPK1 = HPK1 (Homo sapiens, UniProt Q92918); settings: 1 µM; binder
MEK3 = MEK3 (Homo sapiens, UniProt P46734); settings: 1 µM; binder
OSR1 = OSR1 (Homo sapiens, UniProt O95747); settings: 1 µM; binder
PHKG2 = PHKG2 (Homo sapiens, UniProt P15735); settings: 1 µM; binder
PIM3 = PIM3 (Homo sapiens, UniProt Q86V86); settings: 1 µM; binder
TAOK2 = TAOK2 (Homo sapiens, UniProt Q9UL54); settings: 1 µM; binder
DYRK1B [11] = biological target: T2, DYRK1B (Homo sapiens, UniProt Q9Y463); experiment: biochemical; settings: read-out: Percent Control
LTK [12] = biological target: T3, LTK (Homo sapiens, UniProt P29376); experiment: biochemical; settings: read-out: Percent Control
STK33 [13] = biological target: T4, STK33 (Homo sapiens, UniProt Q9BYT3); experiment: biochemical; settings: read-out: Percent Control
DYRK1B [14] = biological target: T2, DYRK1B; experiment: biochemical; settings: read-out: Percent Control; remark: listed apart in the source
LTK [15] = biological target: T3, LTK; experiment: biochemical; settings: read-out: Percent Control; remark: listed apart in the source
STK33 [16] = biological target: T4, STK33; experiment: biochemical; settings: read-out: Percent Control; remark: listed apart in the source

T3 sequence (P29376 whole entry): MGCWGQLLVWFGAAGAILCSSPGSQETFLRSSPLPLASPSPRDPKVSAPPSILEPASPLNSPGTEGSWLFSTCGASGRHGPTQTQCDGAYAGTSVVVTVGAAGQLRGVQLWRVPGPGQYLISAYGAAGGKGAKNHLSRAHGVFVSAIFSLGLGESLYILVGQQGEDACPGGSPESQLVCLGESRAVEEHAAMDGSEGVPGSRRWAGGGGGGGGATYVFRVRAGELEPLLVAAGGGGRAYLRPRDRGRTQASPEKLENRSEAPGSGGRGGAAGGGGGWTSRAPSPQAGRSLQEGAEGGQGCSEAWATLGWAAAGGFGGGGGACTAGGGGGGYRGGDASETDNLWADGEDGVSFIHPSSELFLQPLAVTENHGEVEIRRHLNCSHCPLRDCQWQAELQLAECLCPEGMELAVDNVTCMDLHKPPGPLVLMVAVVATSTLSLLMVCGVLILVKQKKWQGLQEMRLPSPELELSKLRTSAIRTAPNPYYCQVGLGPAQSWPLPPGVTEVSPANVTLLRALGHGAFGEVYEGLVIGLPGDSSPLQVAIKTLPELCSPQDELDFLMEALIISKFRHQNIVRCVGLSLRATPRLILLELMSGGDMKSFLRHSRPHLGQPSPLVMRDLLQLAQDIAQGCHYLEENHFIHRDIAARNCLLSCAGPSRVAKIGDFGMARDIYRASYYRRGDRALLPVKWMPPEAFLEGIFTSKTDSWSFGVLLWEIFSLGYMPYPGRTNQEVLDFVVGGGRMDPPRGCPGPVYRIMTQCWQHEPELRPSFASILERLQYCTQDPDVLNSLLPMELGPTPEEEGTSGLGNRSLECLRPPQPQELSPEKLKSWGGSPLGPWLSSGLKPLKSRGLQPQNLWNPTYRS
T2 sequence (Q9Y463 whole entry): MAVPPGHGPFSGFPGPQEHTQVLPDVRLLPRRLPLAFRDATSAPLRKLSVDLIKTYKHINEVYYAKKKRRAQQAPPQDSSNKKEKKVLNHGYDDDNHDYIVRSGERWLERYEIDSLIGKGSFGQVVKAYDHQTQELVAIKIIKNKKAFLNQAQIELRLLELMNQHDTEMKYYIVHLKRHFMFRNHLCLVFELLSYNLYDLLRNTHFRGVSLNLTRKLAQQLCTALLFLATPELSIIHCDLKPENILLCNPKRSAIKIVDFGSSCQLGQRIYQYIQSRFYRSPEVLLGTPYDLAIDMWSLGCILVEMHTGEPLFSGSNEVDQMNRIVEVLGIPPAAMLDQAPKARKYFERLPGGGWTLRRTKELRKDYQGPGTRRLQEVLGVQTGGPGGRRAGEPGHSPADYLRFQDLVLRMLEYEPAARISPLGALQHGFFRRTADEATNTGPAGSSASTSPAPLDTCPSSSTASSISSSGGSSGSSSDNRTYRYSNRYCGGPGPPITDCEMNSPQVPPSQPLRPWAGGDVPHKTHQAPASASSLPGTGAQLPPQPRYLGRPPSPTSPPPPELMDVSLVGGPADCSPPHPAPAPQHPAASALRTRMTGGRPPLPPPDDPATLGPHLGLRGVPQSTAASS
T1 sequence (P61075 whole entry): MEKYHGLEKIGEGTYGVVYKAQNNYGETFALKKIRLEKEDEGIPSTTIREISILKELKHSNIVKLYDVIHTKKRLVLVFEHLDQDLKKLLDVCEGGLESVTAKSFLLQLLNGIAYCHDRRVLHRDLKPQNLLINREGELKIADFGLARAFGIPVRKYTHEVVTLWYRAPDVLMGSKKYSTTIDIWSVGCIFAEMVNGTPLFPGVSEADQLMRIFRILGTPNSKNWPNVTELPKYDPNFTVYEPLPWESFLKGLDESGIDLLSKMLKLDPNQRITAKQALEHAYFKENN
T4 sequence (Q9BYT3 whole entry): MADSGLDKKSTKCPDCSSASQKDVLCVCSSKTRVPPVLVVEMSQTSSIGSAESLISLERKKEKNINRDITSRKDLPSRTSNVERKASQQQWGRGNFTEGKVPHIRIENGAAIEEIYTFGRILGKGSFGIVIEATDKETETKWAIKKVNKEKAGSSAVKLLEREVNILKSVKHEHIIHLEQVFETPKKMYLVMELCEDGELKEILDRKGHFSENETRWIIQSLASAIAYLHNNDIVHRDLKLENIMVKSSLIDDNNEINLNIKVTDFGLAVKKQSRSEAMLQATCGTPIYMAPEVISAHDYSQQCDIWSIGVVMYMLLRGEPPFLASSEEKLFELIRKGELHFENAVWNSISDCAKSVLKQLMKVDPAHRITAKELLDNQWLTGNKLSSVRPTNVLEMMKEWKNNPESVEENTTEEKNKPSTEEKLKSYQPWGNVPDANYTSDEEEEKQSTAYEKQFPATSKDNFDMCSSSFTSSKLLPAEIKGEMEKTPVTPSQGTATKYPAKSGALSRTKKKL
OSR1, sequence (O95747 whole entry): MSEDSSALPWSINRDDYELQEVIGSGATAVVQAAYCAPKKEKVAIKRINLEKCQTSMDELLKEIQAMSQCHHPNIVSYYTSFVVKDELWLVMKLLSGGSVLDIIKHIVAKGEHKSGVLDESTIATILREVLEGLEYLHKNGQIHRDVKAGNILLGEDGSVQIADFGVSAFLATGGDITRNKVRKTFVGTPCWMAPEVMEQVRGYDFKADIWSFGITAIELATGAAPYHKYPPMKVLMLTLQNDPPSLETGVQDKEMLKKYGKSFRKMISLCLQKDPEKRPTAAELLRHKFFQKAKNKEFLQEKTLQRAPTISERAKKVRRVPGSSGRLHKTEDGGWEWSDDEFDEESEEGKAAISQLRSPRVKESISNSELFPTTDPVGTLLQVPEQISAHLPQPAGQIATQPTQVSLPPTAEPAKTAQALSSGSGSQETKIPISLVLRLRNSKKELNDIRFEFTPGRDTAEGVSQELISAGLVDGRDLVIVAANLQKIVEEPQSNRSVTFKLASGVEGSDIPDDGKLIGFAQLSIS
MEK3, sequence (P46734 whole entry): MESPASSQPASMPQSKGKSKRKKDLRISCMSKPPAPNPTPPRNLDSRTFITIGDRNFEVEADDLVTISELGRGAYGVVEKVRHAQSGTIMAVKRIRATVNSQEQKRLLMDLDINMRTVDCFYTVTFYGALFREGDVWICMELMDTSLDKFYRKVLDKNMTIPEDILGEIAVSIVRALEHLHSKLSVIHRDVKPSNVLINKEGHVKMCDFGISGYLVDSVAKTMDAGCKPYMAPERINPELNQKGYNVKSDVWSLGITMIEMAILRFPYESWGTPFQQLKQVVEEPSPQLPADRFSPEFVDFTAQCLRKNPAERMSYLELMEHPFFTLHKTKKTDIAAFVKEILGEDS
HPK1, sequence (Q92918 whole entry): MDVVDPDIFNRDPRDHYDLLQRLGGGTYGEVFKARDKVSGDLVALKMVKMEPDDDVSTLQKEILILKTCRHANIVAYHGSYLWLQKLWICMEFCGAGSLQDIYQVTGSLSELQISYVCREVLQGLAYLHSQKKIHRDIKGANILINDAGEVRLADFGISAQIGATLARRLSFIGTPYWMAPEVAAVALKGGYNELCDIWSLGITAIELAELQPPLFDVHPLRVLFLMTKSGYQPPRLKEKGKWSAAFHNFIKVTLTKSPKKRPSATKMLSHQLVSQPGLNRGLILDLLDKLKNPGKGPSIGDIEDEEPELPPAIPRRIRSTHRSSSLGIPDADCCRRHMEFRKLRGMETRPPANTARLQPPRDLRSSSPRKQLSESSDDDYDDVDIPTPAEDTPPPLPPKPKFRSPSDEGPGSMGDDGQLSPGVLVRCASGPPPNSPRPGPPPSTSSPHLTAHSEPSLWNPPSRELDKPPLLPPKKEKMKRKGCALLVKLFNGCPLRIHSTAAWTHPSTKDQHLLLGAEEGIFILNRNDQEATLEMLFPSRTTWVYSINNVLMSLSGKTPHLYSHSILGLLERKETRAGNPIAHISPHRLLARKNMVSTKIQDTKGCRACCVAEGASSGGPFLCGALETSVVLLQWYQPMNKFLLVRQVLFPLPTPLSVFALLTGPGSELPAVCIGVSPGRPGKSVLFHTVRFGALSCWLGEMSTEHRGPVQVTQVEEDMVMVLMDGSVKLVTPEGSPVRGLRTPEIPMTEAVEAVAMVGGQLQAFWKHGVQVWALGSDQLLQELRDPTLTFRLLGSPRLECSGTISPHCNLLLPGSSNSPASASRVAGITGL
CSNK2A2, sequence (P19784 whole entry): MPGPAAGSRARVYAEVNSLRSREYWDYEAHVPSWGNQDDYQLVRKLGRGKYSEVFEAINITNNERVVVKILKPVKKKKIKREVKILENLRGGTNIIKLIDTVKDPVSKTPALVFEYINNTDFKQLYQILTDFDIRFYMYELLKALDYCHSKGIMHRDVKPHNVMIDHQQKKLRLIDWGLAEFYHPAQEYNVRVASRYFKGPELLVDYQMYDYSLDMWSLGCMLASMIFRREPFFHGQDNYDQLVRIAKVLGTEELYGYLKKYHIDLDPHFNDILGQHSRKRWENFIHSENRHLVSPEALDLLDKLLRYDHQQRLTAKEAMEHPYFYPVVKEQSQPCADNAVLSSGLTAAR
PFCDPK1 (P. falciparum), sequence (P62344 whole entry): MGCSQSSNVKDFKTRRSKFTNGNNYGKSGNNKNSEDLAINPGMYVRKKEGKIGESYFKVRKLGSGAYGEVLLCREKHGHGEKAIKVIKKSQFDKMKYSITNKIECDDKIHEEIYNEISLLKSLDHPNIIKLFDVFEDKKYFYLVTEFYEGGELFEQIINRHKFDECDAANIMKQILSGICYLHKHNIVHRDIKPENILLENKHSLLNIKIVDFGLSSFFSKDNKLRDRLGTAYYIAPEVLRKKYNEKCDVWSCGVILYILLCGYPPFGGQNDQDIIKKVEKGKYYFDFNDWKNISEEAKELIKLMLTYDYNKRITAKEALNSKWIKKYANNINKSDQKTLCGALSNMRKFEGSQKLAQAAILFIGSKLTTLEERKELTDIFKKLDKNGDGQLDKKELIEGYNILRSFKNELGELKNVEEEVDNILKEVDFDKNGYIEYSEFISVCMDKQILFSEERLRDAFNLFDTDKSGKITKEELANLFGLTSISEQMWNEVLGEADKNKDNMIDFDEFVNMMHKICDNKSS

Structure (SMILES): CNc1ncc2cc(-c3ccc(-c4cccc(C)n4)cc3Cl)c(=O)n(C[C@H]3OC[C@H](N)CO3)c2n1 [compound 6, G-5555]
- Percent Control [1]: 100%
- Percent Control (CDK4-cyclinD1): 100%
- Percent Control [2]: 100%
- Percent Control (GCN2(Kin.Dom.2,S808G)): 76%
- Percent Control [3]: 100%
- Percent Control [4]: 100%
- Percent Control [5]: 92%
- Percent Control [6]: 100%
- Percent Control (PKNB (M. tuberculosis)): 100%
- Percent Control [7]: 100%
- Percent Control (PFPK5(P. falciparum) [8]): 90%
- Percent Control [9]: 94%
- Percent Control (PFCDPK1 (P. falciparum)): 9.1%
- Percent Control (PFPK5(P. falciparum) [10]): 100%
- Percent Control (CSNK2A2): 95%
- Percent Control (EPHA5): 100%
- Percent Control (ERK2): 86%
- Percent Control (HPK1): 26%
- Percent Control (MEK3): 29%
- Percent Control (OSR1): 100%
- Percent Control (PHKG2): 100%
- Percent Control (PIM3): 100%
- Percent Control (TAOK2): 100%
- remaining activity at 0.1 µM (DYRK1B [11]): 61%
- remaining activity at 0.1 µM (LTK [12]): 28%
- remaining activity at 0.1 µM (STK33 [13]): 100%
- remaining activity at 1 µM (DYRK1B [14]): 49%
- remaining activity at 1 µM (LTK [15]): 4.1%
- remaining activity at 1 µM (STK33 [16]): 75%

— publication doi:10.1101/2021.04.08.439011v1 (biorxiv, 2021)
